According to ChEMBL document CHEMBL1201862, “PubChem BioAssay data set” (2004):
Active and inactive are the calls of the source.

Key:
[1] = P. falciparum 3D7-ScDHODH growth inhibitors, dose response, SYBR Green, dry powder samples (AID 1159570); type: functional, cell-based;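 note: parasite growth measured after 72 hours of compound exposure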
[2] = P. falciparum Dd2 growth inhibitors, dose response, SYBR Green, cherry-picked samples (AID 1159567); type: functional, cell-based
[3] = P. falciparum Dd2 growth inhibitors, dose response, SYBR Green, dry powder samples (AID 1159566); type: functional, cell-based;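 note: potency for growth inhibition with lower SYBR green DNA signal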
[4] = P. falciparum ATP4 D1247Y mutant growth inhibitors, dose response, NITD609-resistant line, SYBR Green, dry powder (AID 1159571); type: functional, cell-based;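 note: parasites synchronized at ring stage by sorbitol before testing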
P388/ADR = assay: cells; type: functional; details: Mus musculus
SN12K1 = assay: cells; type: functional; details: Homo sapiens
[5] = biological target: T1, Carboxy-terminal domain RNA polymerase II polypeptide A small phosphatase 1 (Homo sapiens, UniProt Q9GZU7); assay: inhibitors of CTDSP1, concentration-response testing, biochemical assay, absorbance-based, actives from ultra-high-throughput screening (AID 540297); type: functional
T1 sequence (Q9GZU7 whole entry): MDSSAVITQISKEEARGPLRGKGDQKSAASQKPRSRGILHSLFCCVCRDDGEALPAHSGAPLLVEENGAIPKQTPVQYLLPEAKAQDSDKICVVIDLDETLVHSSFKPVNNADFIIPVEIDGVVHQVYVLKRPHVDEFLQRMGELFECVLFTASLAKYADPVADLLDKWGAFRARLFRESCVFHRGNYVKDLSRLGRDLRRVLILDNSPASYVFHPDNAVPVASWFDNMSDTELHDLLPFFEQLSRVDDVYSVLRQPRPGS

Cysteine protease ATG4B = biological target: T2, Cysteine protease ATG4B (Homo sapiens, UniProt Q9Y4P1); type: functional;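 note: Fluorescence-based dose-response confirmation assay measuring inhibition of ATG4B activity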
T2 sequence (Q9Y4P1 whole entry): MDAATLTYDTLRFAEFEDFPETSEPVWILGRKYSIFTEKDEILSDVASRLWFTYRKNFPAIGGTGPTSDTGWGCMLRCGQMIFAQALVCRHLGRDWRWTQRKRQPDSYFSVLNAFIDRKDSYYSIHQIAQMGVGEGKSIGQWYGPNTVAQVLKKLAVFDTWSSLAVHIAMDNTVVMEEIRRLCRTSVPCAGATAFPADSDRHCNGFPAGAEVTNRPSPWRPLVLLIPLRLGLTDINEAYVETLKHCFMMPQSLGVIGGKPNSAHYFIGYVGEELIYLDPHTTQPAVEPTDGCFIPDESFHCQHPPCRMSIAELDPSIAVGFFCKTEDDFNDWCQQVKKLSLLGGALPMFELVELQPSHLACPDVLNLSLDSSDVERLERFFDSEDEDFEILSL

Phospholipase A2 = Phospholipase A2 (Homo sapiens, UniProt P04054); type: functional;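 note: confirmatory dose-response counterscreen on phospholipase A2, testing hits that came from an ultra-high-throughput screen for ATG4B inhibitors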
Phospholipase A2, sequence (P04054 whole entry): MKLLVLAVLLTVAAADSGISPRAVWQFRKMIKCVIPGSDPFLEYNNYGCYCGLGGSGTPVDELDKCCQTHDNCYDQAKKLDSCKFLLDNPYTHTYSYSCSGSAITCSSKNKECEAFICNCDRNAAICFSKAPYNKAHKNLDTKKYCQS

[6] = biological target: T3, Polyadenylate-binding protein 1 (Homo sapiens, UniProt P11940); assay: PABP1 MLLE–PAM2 interaction inhibitors, dose response, miRNA deadenylation inhibitor project, biochemical, fluorescence polarization, Cy5-PAM2 peptide, secondary (AID 602260); type: functional; details: read-out: IC50_Mean
T3 sequence (P11940 whole entry): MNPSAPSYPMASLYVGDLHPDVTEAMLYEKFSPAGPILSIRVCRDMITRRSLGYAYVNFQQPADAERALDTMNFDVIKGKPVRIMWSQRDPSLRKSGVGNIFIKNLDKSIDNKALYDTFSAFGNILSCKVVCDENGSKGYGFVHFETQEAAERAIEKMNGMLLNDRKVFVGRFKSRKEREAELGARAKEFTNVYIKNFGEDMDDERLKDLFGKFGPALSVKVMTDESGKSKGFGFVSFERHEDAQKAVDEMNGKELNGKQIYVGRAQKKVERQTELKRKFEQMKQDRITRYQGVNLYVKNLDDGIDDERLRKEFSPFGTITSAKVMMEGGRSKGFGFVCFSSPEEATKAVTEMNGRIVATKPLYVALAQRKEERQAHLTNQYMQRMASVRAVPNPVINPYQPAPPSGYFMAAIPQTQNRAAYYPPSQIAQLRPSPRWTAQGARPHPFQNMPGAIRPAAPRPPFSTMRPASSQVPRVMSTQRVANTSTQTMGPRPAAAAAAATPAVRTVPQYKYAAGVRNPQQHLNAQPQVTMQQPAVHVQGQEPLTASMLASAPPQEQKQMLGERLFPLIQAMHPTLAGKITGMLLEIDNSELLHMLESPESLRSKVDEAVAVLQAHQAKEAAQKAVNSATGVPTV

[7] = biological target: T3, Polyadenylate-binding protein 1; assay: PABP1 MLLE–PAM2 binding inhibitor potency, dose response, biochemical, fluorescence polarization, FITC-PAM2 peptide (AID 602259); type: functional; details: read-out: IC50_Mean
[8] = biological target: T4, Sentrin-specific protease 8 (Homo sapiens, UniProt Q96LD8); type: functional
T4 sequence (Q96LD8 whole entry): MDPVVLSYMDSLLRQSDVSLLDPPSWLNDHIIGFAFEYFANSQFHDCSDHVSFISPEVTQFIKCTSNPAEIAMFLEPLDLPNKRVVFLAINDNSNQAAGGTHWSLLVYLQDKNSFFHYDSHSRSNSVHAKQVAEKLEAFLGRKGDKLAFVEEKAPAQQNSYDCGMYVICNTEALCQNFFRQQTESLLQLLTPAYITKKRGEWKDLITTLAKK

[9] = biological target: T4, Sentrin-specific protease 8; type: functional; remark: listed apart in the source
[10] = inhibitors of HIV Env-driven cell fusion, dose response, cherry-pick (AID 652057); type: functional, cell-based
[11] = ZM109 Env clade C HIV-1 fusion inhibitors, dose response, HeLa effector, CEM target cells, luciferase, cherry-pick (AID 652058); type: functional, cell-based
[12] = inhibitors of clade B AD8 Env fusion, dose response, cell-based, cherry-pick (AID 652062); type: functional;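 note: luciferase signal from cell-cell fusion driven by HIV-1 clade B AD8 Env; potency is for inhibitors of fusion seen as a drop in luminescence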
cells = type: functional
[13] = inhibitors of intracellular T. cruzi replication, confirmation, NIH3T3 host cells, beta-gal luminescence (AID 2044); type: functional, cell-based;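 note: intracellular parasites grown in NIH/3T3 mouse fibroblasts as host cells; luminescent beta-galactosidase reporter signal from transgenic T. cruzi replicating inside host cells; inhibitors lower the luminescence signal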
[14] = cytotoxicity toward NIH3T3 fibroblasts, dose response, counter-screen, cell-based, ATP luminescence, mouse fibroblasts (AID 2010); type: functional;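 note: cells exposed to compound for about 90 hours before reading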
[15] = biological target: Heat shock protein HSP 90-alpha (Homo sapiens, UniProt P07900); type: functional, organism-based
[16] = A549 cell cytotoxicity, dose response, cytotoxicity control, plate reader, cherry-pick, antagonist series (AID 743412); type: functional, cell-based
[17] = LGR2 antagonists, dose response, cell-based, HEK293, CRE-luciferase reporter, cherry pick, set 2 (AID 743343); type: functional;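 note: transfected cells were stimulated with diluted bursicon conditioned medium after compound addition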
[18] = MC4R antagonists, dose response, counter-screen for LGR2 antagonist project, cell-based, plate reader, cherry pick (AID 743444); type: functional;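 note: transfected HEK 293 cells stimulated with alpha-MSH peptide; potency of inhibitors of the alpha-MSH evoked signal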
[19] = HEK293 cell cytotoxicity, dose response, cytotoxicity control, plate reader, cherry-picked samples (AID 743446); type: functional, cell-based
[20] = NIH-3T3 fibroblast cytotoxicity, dose response, cytotoxicity control, cell-based, fluorescence, Alamar Blue, secondary assay (AID 2327); type: functional;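 note: NIH-3T3 mouse fibroblasts cultured with fluconazole at 8 µg/mL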
[21] = C. albicans growth with fluconazole, confirmation, fluorescence, retest (AID 2467); type: functional, cell-based

## CCCNC(=O)c1cc2c(c(-c3cccc(-c4cc5ccccc5o4)c3)n1)[C@H](CCO)N(C(=O)NC(C)C)C2
[1]
  AC50: 2.97 µM (active)
[2]
  AC50: 1.87 µM (active)
[3]
  AC50: 1.75 µM (active)
[4]
  AC50: 2.39 µM (active)

## C=C1C(=O)O[C@@H]2OC3(C)CCC4C(C)CCC1C42OO3 (some centres not stated)
P388/ADR
  GI50: 294 nM (active)
SN12K1
  GI50: 3.66 µM (inactive)

## COc1ccc(/C=C2\SC(=S)N(CCC(=O)Nc3cccc(C(=O)O)c3)C2=O)cc1
[5]
  IC50: 6.38 µM (active)

## CN1C(=O)C(N=Nc2ccccc2C(=O)O)N(C)C1=S (configuration not stated)
Cysteine protease ATG4B
  IC50: 16.1 µM (active)
Phospholipase A2
  IC50: 10.3 µM (active)

## C=CCN1C(=O)/C(=C2/Sc3ccccc3N2CCCS(=O)(=O)O)SC1=S.c1ccncc1
[5]
  IC50: 5.11 µM (active)
[6]
  IC50: > 66 µM (inactive)
[7]
  IC50: > 66 µM (inactive)

## COc1cc(OC)cc(-c2nc3ccccc3c(=O)n2OC(=O)c2ccc(C)c(C)c2)c1
Cysteine protease ATG4B
  IC50: 4.38 µM (active)
Phospholipase A2
  IC50: 5.9 µM (active)

## CCOc1ccccc1NC(=O)Cn1cnc2c(nnn2-c2cccc(OC)c2)c1=O
[5]
  IC50: 10.1 µM (active)

## COC/C=C/C1=CC2=CC(=O)C(C)(OC(=O)c3cnc4ccccc4n3)C(=O)C2=CN1CCOC (configuration not stated)
[8]
  IC50: 13.1 µM (active)
[9]
  IC50: 11.5 µM (active)

## COc1ccc(NC(=O)Nc2ccc3c(c2)C(=O)N([C@@H](C)CO)C[C@H](C)[C@H](CN(C)S(=O)(=O)c2ccc(Cl)cc2)O3)cc1
[10]
  AC50: 5.71 µM (active)
[11]
  AC50: 4.73 µM (active)
[12]
  AC50: 5.38 µM (active)

## CC(C)(C)OC(=O)N1Cc2ccccc2C[C@H]1C(=O)O
[8]
  IC50: > 100 µM (inactive)
[9]
  IC50: 12.8 µM (active)

## COc1ccc(C(C)=O)cc1COC(=O)c1ccc2ccccc2n1
cells
  IC50: 10.4 µM (active)

## O=c1c2ccccc2nc(-c2ccc(-c3ccccc3)cc2)n1-c1ccncc1
[13]
  EC50: 398 nM (active)
[14]
  EC50: > 60 µM (not active)
[15]
  AC50: 2.73 µM (active)

## Cc1ccc(NCCC(=O)c2cccs2)cc1Cl
cells
  IC50: 28.8 µM (active)

## Cc1ccc(Nc2nc3ccccc3s2)c(C)c1
[16]
  AC50: 37.8 µM (active)
[17]
  AC50: 16.1 µM (active)
[18]
  AC50: 14.3 µM (active)
[19]
  AC50: > 52 µM (inactive)

## CC(C)(C)C(O)C(Cc1ccccc1Cl)n1cncn1 (configuration not stated)
[15]
  AC50: < 0.195 µM (active)

## CCn1c(=O)c(C(=O)Nc2ncccc2C)c(O)c2ccccc21
[20]
  EC50: > 150 µM (inconclusive)
[21]
  EC50: 119 nM (active)
cells
  IC50: 45.2 µM (active)

## COc1ccc(NC(=O)NNc2cc(N3CCOCC3)nc(N3CCOCC3)n2)cc1
[8]
  IC50: 7.36 µM (active)
[9]
  IC50: 9.34 µM (active)

## Cc1cccc(-n2c(-c3cccs3)nc3ccccc3c2=O)c1
Cysteine protease ATG4B
  IC50: 10 µM (active)
Phospholipase A2
  IC50: 7.49 µM (active)

## O=C(COc1ccccc1[N+](=O)[O-])Nc1cccc(S(=O)(=O)NC2=NCCCCC2)c1
[5]
  IC50: 9 µM (active)

## Cc1ccc2[nH]c(CCc3nc4cc(C)ccc4[nH]3)nc2c1
cells
  IC50: 35.3 µM (active)

## COc1cc(=O)n(C)c2c(O)cccc12
[8]
  IC50: > 100 µM (inactive)
[9]
  IC50: 11.5 µM (active)

## Cc1ccccc1S(=O)(=O)N(C)C[C@@H]1OCc2ccccc2-c2c(n(C)c3ccccc23)C(=O)N([C@@H](C)CO)C[C@@H]1C
[1]
  AC50: 1.02 µM (active)
[2]
  AC50: 1.63 µM (active)
[3]
  AC50: 0.659 µM (active)
[4]
  AC50: 0.812 µM (active)

## C[C@H]1CN([C@@H](C)CO)C(=O)Cc2cc(NC(=O)C3CCCCC3)ccc2O[C@H]1CN(C)S(=O)(=O)c1ccc(Cl)cc1
[10]
  AC50: 8.97 µM (active)
[11]
  AC50: 6.75 µM (active)
[12]
  AC50: 22.6 µM (active)

## COc1ccc(N2C(=O)Cc3ccccc3C2=O)cc1
[8]
  IC50: > 100 µM (inactive)
[9]
  IC50: 5.08 µM (active)
